Assays:
Dunaliella culture = assay: Dunaliella growth in F2 media in seawater, optical density at 680 and 750 nm; type: cell-based; details: for effect on Dunaliella growth: various concentrations, F2 media in seawater, after approximately six days, optical density 680 and 750 nm
Procedure: (§1) According to one exemplary method, thirty (30) microliters of a Dunaliella culture were inoculated into seven (7) milliliters of F2 media within seawater. The mixture was distributed evenly between six well plates. Glyphosate was added at various concentrations. Additional well plates were inoculated with the same Dunaliella culture, but were not treated with glyphosate. After approximately six days, optical density measurements at both 680 and 750 nanometers were taken in triplicate for each of the various glyphosate concentrations.
as §1, with “in” for “within”, “Ammonium chloride” for “Glyphosate”, “ammonium chloride.” for “glyphosate.”, “ammonium chloride” for “glyphosate”
as §1, with “in” for “within”, “Ammonium hydroxide” for “Glyphosate”, “ammonium hydroxide.” for “glyphosate.”, “ammonium hydroxide” for “glyphosate”

Nannochloropsis culture = assay: Nannochloropsis growth in F2 media in seawater, optical density at 680 and 750 nm; type: cell-based; details: for effect on Nannochloropsis growth: various concentrations, F2 media in seawater, after approximately six days, optical density 680 and 750 nm; for IC50: 144 h, read-out: concentration that inhibited Nannochloropsis growth by approximately fifty percent (50%)
Procedure: as §1, with “a Nannochloropsis” for “a Dunaliella”, “culture was introduced” for “culture were inoculated”, “media in” for “media within”, “same Nannochloropis” for “same Dunaliella”, “culture, however, the well plates” for “culture, but”
as §1, with “a Nannochloropsis” for “a Dunaliella”, “media in” for “media within”, “plates. Ammonium chloride” for “plates. Glyphosate”, “same Nannochloropis” for “same Dunaliella”, “with ammonium chloride.” for “with glyphosate.”, “various ammonium chloride” for “various glyphosate”
as §1, with “Nannochloropsis” for “Dunaliella”, “in” for “within”, “Ammonium hydroxide” for “Glyphosate”, “ammonium hydroxide.” for “glyphosate.”, “ammonium hydroxide” for “glyphosate”
According to one exemplary method, thirty (30) microliters of a Nannochloropsis culture was introduced into seven (7) milliliters of F2 media in seawater. The mixture was distributed evenly between six well plates. Glufosinate was added at various concentrations. Additional well plates were inoculated with the same Nannochloropsis culture, however, the well plates were not treated with glufosinate. After approximately six days, optical density measurements at both 680 and 750 nanometers were taken in triplicate for each of the various glufosinate concentrations.

| SMILES | effect on Dunaliella growth (Dunaliella culture) | effect on Nannochloropsis growth (Nannochloropsis culture) | IC50 (Dunaliella culture; 144 h, read-out: concentration that inhibited Dunaliella growth by approximately fifty percent (50%)) | IC50 (Nannochloropsis culture) |
| --- | --- | --- | --- | --- |
| N [ammonium hydroxide] | did not inhibit Dunaliella growth | did not inhibit Nannochloropsis growth | – | – |
| O=C(O)CNCP(=O)(O)O [glyphosate] | inhibited Dunaliella growth | controlled (inhibited) Nannochloropsis growth | ~1200 µM | ~800 µM |
| CP(=O)(O)CCC(N)C(=O)O (stereo not shown) [glufosinate] | – | controlled (inhibited) Nannochloropsis growth | – | ~25 µM |
| Cl.N [ammonium chloride] | did not inhibit Dunaliella growth | did not inhibit Nannochloropsis growth | – | – |

— US20100022393A1, “Glyphosate applications in aquaculture” (priority 2008, published 2010)
